Data from ChEMBL document CHEMBL1201862, “PubChem BioAssay data set” (2004).
Active and inactive are the calls of the source.

Key:
Cytochrome P450 2C19 = Cytochrome P450 2C19 (Homo sapiens, UniProt P33261); assay: Cytochrome panel assay with activity outcomes. Panel member name: p450-cyp2c19 Compounds with AC50 equal or less than 10 uM are considered active; format: functional; conditions: read-out: AC50
Cytochrome P450 3A4 = Cytochrome P450 3A4 (Homo sapiens, UniProt P08684);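 also: CYP3A4 tested as one member of a cytochrome P450 panel screen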
Cytochrome P450 3A4, sequence (P08684 whole entry): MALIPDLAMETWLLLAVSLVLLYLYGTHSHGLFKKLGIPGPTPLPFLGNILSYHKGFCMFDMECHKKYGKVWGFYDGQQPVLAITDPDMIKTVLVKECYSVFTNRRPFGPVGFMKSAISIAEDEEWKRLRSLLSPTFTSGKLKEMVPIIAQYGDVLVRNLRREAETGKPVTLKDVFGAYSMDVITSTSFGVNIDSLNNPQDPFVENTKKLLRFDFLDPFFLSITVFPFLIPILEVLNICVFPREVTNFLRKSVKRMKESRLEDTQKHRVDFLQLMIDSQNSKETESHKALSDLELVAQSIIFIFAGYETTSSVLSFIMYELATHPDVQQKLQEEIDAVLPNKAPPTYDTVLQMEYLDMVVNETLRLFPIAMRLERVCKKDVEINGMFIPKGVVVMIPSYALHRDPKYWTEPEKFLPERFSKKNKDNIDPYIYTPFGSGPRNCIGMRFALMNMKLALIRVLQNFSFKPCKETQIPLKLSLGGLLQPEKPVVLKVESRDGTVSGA

Estrogen receptor beta = Estrogen receptor beta (Homo sapiens, UniProt Q92731);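 also: recombinant ER-beta bound to coactivator SRC1 peptide in presence of estradiol agonist; inhibitors block coactivator peptide binding and lower the FRET signal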
Estrogen receptor beta, sequence (Q92731 whole entry): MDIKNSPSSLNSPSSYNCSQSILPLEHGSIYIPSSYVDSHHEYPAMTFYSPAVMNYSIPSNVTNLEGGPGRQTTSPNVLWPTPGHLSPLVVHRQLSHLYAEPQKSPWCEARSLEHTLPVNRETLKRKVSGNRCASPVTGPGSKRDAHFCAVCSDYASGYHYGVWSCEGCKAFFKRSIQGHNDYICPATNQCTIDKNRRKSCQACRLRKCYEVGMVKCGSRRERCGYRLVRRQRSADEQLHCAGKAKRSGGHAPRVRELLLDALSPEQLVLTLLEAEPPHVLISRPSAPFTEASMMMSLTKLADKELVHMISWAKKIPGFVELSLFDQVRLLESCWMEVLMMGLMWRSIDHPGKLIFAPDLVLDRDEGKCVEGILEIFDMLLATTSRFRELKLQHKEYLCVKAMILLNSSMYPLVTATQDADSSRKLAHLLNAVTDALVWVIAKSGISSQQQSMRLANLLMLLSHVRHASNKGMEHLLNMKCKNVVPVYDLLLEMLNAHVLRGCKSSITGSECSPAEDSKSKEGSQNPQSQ

Coagulation factor XII = biological target: T1, Coagulation factor XII (Homo sapiens, UniProt P00748); format: functional;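 also: activated factor XIIa alpha cleaving a fluorogenic AMC peptide substrate; inhibitor potency from loss of enzyme activity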
T1 sequence (P00748 whole entry): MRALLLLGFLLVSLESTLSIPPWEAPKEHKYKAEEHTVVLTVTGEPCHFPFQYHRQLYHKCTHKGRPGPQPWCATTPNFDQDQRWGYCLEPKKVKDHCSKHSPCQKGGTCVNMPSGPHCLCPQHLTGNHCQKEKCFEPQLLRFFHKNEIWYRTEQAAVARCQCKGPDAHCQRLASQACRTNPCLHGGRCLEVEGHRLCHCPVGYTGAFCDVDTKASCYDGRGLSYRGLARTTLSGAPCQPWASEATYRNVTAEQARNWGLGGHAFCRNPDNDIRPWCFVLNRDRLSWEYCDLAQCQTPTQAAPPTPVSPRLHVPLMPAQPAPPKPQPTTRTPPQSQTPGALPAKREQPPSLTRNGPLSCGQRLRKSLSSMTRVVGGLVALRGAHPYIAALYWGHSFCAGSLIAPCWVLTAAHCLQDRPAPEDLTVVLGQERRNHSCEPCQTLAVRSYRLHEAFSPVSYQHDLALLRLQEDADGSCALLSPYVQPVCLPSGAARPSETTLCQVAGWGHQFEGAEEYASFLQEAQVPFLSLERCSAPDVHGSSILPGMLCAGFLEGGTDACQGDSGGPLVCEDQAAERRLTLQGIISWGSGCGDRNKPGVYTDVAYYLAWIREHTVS

[1] = Luminescence Cell-Based Dose Response to Identify Activators of 5'UTR Stem-Loop Driven Prion Protein mRNA Translation in H4-C Neuroglioblastoma Cells. [Related pubchem assays: 1829 (Project Summary), 1814 (Primary HTS)]; format: functional
[2] = biological target: Peroxisome proliferator-activated receptor gamma/Nuclear receptor coactivator 3 (Homo sapiens, UniProt P37231); assay: TR-FRET dose response biochemical High Throughput Screening assay for agonists of the steroid receptor coactivator 3 (SRC-3) recruitment by the peroxisome proliferator-activated receptor gamma (PPAR gamma): non-selective agonists. [Related pubchem assays: 1301 (Confirmation screen.), 1048 (Primary screen.)]; format: functional
[3] = Luminescence Cell-Based Dose Confirmation to Identify Activators of 5'UTR Stem-Loop Driven Alpha-Synuclein mRNA Translation in H4 Neuroglioblastoma Cells. [Related pubchem assays: 1829 (Project Summary), 1814 (Primary HTS)]; format: functional
[4] = Luminescence Cell-Based Dose Response HTS to Identify Activators of Luciferase Translation or Activity in H4 […] Cells. [Related pubchem assays: 1829 (Project Summary), 1814 (Primary HTS)]; format: functional
H4 = assay: Luminescence Cell-Based Dose Response HTS to Identify Activators of 5'UTR Stem-Loop Driven Prion Protein mRNA Translation in H4 Neuroglioblastoma Cells. [Related pubchem assays: 1829 (Project Summary), 1814 (Primary HTS)]; format: functional; conditions: Homo sapiens
[5] = Luminescence Cell-Based Dose Response to Identify Activators of Luciferase Translation or Activity in H4-C Neuroglioblastoma Cells. [Related pubchem assays: 1829 (Project Summary), 1814 (Primary HTS)]; format: functional
[6] = biological target: Peroxisome proliferator-activated receptor gamma/Nuclear receptor coactivator 2 (Homo sapiens, UniProt P37231); assay: (§1) TR-FRET dose response biochemical High Throughput Screening assay for agonists of the steroid receptor coactivator 2 (SRC-2) recruitment by the peroxisome proliferator-activated receptor gamma (PPAR gamma): non-selective agonists. [Related pubchem assays: 1297, 1032 ]; format: functional
[7] = biological target: Peroxisome proliferator-activated receptor gamma/Nuclear receptor coactivator 1 (Homo sapiens, UniProt P37231); assay: as §1, with “1 (SRC-1)” for “2 (SRC-2)”, “assays (depositor defined):AID1300, AID1808, AID504735, AID631]” for “assays: 1297, 1032 ]”; format: protein assay
[8] = cytotoxicity in KRAS-transformed pancreatic duct cells, primary screen, cell-based, fluorescence, HTS (AID 431); format: functional; conditions: Homo sapiens;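 also: cell line used: HPDE-C7K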
[9] = cytotoxicity in HPDE-C7 cells, cell-based, fluorescence, HTS (AID 430); format: functional; conditions: Homo sapiens
[10] = biological target: T2, Voltage-gated N-type calcium channel alpha-1B subunit/Amyloid beta A4 precursor protein-binding family A member 1 (Homo sapiens, UniProt Q00975+Q02410); format: protein assay
T2 sequence (Q00975 whole entry): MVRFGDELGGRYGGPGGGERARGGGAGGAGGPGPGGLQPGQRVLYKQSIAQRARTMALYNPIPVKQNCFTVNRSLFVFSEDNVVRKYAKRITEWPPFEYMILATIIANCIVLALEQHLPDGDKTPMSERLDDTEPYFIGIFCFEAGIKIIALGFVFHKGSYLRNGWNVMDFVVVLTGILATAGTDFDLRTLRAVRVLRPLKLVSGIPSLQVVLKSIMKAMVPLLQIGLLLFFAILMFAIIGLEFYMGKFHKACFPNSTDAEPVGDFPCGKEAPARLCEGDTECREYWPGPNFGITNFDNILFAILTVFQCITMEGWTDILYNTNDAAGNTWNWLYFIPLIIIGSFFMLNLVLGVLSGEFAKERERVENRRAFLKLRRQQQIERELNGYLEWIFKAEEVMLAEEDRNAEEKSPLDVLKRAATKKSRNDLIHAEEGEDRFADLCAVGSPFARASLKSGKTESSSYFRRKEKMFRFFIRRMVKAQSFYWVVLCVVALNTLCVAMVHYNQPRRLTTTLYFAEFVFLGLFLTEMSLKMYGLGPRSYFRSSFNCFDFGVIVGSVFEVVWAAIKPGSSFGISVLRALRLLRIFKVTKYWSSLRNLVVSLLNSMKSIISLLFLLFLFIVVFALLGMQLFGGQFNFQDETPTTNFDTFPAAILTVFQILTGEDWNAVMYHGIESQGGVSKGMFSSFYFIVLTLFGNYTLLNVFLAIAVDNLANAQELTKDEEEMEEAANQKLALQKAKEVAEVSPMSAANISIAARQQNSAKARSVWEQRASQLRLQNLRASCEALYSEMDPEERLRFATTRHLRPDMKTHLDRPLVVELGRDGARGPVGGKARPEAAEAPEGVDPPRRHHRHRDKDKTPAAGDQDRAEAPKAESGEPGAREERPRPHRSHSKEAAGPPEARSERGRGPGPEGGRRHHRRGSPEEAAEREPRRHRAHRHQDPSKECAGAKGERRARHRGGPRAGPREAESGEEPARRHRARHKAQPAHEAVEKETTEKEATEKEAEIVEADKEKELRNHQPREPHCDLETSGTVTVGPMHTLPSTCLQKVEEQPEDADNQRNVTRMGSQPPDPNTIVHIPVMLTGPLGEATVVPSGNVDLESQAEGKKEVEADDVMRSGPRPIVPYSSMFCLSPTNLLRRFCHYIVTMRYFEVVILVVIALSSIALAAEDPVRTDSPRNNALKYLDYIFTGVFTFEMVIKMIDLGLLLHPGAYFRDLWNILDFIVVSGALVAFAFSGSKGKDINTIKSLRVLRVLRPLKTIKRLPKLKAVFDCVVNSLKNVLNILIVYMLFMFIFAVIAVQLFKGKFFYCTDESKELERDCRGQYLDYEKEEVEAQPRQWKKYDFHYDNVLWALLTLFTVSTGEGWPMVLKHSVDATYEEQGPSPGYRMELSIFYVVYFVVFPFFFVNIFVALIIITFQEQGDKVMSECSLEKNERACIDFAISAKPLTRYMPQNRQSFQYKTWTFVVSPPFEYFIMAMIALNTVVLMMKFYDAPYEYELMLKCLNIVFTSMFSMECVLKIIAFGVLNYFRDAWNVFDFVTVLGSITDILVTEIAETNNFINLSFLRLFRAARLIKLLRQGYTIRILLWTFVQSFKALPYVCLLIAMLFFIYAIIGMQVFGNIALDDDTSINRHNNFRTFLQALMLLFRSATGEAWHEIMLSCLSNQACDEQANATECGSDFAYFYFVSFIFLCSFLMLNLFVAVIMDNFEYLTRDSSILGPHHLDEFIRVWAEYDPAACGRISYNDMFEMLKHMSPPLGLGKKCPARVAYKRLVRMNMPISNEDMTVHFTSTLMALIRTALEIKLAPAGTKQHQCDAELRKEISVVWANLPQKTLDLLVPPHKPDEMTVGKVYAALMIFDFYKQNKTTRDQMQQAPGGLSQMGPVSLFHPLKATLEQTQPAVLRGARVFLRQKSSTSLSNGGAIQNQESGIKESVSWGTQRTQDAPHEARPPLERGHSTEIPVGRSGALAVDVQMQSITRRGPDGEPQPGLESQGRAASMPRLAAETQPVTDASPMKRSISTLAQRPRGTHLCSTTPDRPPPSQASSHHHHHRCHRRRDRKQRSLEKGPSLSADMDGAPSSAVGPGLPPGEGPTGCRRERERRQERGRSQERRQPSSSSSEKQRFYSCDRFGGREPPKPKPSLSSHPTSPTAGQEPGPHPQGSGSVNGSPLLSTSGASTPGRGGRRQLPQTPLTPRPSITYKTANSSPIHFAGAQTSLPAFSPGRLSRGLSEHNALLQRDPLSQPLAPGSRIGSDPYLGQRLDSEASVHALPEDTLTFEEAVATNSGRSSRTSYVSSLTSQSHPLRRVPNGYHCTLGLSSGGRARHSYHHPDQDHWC
T2 sequence (Q02410 whole entry): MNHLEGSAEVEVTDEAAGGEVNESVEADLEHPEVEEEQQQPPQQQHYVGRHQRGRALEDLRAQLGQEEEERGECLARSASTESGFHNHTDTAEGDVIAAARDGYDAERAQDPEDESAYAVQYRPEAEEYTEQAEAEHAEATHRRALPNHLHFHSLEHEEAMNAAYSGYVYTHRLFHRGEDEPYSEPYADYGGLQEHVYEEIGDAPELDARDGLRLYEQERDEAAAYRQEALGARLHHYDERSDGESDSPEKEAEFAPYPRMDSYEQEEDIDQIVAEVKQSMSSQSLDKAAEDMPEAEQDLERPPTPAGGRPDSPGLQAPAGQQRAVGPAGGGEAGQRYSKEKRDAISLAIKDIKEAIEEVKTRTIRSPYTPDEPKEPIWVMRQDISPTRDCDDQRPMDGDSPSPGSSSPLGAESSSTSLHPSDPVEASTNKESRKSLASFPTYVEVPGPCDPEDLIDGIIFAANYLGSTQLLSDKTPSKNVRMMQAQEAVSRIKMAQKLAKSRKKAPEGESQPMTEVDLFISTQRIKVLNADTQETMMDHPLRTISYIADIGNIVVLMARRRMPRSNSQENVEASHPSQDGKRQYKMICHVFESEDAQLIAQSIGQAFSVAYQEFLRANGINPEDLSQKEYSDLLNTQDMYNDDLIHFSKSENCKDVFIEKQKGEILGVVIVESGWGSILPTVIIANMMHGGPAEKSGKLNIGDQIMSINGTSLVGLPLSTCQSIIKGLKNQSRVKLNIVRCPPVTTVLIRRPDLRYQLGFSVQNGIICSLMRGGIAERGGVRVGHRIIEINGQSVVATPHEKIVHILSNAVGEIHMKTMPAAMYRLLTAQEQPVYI

[11] = biological target: T3, Polyadenylate-binding protein 1 (Homo sapiens, UniProt P11940); assay: PABP1 MLLE–PAM2 binding inhibitor potency, dose response, biochemical, fluorescence polarization, FITC-PAM2 peptide (AID 602259); format: functional; conditions: read-out: IC50_Mean
[12] = biological target: T3, Polyadenylate-binding protein 1; assay: PABP1 MLLE–PAM2 interaction inhibitors, dose response, miRNA deadenylation inhibitor project, biochemical, fluorescence polarization, Cy5-PAM2 peptide, secondary (AID 602260); format: functional; conditions: read-out: IC50_Mean
[13] = biological target: T2, Voltage-gated N-type calcium channel alpha-1B subunit/Amyloid beta A4 precursor protein-binding family A member 1; format: protein assay; remark: listed apart in the source
[14] = Luminescence Cell-Based Dose Retest to Confirm Inhibitors of Cancer Stem Cells. [Related pubchem assays (depositor defined):AID2717, AID2721]; format: functional; conditions: Homo sapiens
[15] = biological target: Disintegrin and metalloproteinase domain-containing protein 17 (Homo sapiens, UniProt P78536); assay: exosite inhibitors of ADAM17, dose response, biochemical (AID 743260)
Disintegrin and metalloproteinase domain-containing protein 17, sequence (P78536 whole entry, the tested form may be a part): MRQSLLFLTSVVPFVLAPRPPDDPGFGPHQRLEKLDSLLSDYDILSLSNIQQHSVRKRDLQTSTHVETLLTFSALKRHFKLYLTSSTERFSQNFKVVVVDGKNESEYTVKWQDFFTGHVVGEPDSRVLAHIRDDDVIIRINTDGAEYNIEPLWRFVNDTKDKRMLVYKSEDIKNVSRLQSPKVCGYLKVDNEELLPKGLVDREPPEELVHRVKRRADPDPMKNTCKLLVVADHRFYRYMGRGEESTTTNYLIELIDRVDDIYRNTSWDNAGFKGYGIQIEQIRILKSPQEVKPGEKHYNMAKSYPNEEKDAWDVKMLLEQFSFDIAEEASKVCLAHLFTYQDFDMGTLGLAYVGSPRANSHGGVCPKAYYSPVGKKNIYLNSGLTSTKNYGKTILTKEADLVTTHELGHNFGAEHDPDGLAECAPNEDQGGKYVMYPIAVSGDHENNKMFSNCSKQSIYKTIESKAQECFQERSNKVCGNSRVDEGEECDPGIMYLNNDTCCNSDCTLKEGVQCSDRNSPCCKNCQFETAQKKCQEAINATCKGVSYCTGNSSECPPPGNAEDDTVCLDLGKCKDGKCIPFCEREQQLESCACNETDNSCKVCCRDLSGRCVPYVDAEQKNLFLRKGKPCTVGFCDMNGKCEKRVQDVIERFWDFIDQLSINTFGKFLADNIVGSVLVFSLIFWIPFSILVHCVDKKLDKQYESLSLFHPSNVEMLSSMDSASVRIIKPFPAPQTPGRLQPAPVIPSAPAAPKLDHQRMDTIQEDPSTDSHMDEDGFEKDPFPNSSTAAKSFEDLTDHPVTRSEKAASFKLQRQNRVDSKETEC

[16] = ADAM10 protease inhibitors, dose response, selectivity assay for ADAM17 exosite inhibitor project, biochemical, FRET peptide substrate, recombinant human ADAM10 (AID 743259);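 also: ADAM10 enzyme cleaving a FRET peptide substrate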
[17] = biological target: T4, Histone-lysine N-methyltransferase NSD2 (Homo sapiens, UniProt O96028); format: biochemical
T4 sequence (O96028 whole entry): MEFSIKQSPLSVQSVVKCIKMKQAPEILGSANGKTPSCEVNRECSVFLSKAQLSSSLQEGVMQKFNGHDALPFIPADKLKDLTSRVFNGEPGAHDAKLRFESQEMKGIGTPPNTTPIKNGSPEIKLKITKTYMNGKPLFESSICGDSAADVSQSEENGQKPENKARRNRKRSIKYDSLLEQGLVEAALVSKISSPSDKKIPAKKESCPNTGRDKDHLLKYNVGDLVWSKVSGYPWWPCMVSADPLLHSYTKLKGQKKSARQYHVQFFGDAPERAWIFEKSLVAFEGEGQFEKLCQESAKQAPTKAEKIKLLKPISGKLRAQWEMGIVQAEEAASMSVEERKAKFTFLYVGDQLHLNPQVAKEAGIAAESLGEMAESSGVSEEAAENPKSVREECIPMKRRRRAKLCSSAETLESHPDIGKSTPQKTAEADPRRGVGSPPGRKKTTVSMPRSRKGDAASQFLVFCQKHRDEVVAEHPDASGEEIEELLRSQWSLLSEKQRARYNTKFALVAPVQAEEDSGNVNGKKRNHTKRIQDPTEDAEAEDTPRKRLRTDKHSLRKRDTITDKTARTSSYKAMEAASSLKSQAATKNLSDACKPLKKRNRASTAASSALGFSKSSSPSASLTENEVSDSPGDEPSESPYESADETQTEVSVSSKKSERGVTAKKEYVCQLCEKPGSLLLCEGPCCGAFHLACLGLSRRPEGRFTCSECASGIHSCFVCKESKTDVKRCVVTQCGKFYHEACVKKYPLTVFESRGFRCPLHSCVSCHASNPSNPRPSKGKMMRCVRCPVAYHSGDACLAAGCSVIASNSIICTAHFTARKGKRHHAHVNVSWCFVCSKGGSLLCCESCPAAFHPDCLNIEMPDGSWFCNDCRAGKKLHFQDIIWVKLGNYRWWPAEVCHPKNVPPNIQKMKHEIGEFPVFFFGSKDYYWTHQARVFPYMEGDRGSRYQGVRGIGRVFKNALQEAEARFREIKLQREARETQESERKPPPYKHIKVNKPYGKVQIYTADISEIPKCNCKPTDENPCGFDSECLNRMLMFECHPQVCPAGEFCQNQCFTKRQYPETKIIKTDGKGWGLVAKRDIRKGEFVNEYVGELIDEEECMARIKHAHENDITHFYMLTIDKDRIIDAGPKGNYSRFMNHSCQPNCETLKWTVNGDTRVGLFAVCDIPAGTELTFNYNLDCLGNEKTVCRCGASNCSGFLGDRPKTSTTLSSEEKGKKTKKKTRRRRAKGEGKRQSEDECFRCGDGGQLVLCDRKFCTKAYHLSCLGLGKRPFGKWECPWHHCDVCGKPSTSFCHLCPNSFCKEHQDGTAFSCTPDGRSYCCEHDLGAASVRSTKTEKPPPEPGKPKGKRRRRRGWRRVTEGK

[18] = HEp-2 cell cytotoxicity, dose response, cytotoxicity control for RSV inhibitor project, HTS (AID 2410); format: functional; conditions: human respiratory syncytial virus
[19] = Luminescence Cell-Based Dose Confirmation HTS to Identify Activators of 5'UTR Stem-Loop Driven Alpha-Synuclein mRNA Translation in H4 Neuroglioblastoma Cells. [Related pubchem assays: 1829 (Project Summary), 1814 (Primary HTS)]; format: functional
[20] = growth suppression of PTEN-null colon cells, dose response, cell-based, HCT116 PTEN knockout (AID 1047); format: functional;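 also: HCT116 colon tumor cells with PTEN knocked out; cells exposed to compound for 60 hours before readout; potency for loss of cell viability measured by luminescence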
[21] = biological target: FAD-linked sulfhydryl oxidase ALR (Homo sapiens, UniProt P55789); assay: inhibitors of human ALR sulfhydryl oxidase, dose response, biochemical, H2O2 detection, luminescence, cherry-pick (AID 493248)
[22] = growth suppression of beta-catenin-knockout colon cells, dose response, cell-based, HCT116, human colon tumor (AID 1045); format: functional;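 also: HCT116 colon tumor cells with beta catenin knocked out; cells exposed to compound for 60 hours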
Cytochrome P450 2C9 = Cytochrome P450 2C9 (Homo sapiens, UniProt P11712)
[23] = biological target: DNA dC->dU-editing enzyme APOBEC-3G (Homo sapiens, UniProt Q9HC16); assay: Dose Response confirmation of small molecule APOBEC3G DNA Deaminase Inhibitors via a fluorescence-based single-stranded DNA deaminase assay. [Related pubchem assays (depositor defined):AID493012, AID493028]; format: functional

Compound: COC(=O)N1CCC2(CC1)CN(C(c1ccccc1)c1ccccc1)C2
- AC50 (Cytochrome P450 2C19): 39.8 µM (inconclusive)
- AC50 (Cytochrome P450 3A4): inconclusive

Compound: COC(=O)Nc1c(-c2ccccc2)nc2ccc(C)cn12
- IC50 (Estrogen receptor beta): > 50 µM (not active)

Compound: Fc1cc(F)c2nc(N3CCCC3)sc2c1
- IC50 (Coagulation factor XII): > 50 µM (inactive)

Compound: Cc1oc2nc(SCC(=O)NCCCO)nc(N)c2c1C
- IC50 (Estrogen receptor beta): > 50 µM (not active)

Compound: COc1ccc2c3nc4ccccc4c-3c(O)oc2c1
- EC50 [1]: > 12 µM (not active)
- EC50 [2]: > 79.4 µM (not active)
- EC50 [3]: 0.393 µM (active)
- EC50 [4]: < 0.1 µM (active)
- EC50 (H4): 20.1 µM (inconclusive)
- EC50 [5]: 0.533 µM (active)
- EC50 [6]: 8.33 µM (active)
- EC50 [7]: 7.49 µM (active)

Compound: COc1ccc(NC(=O)c2oc3ccccc3c2NC(=O)c2ccc(OC)c(OC)c2)c(OC)c1
- EC50 [8]: > 20 µM (not active)
- EC50 [9]: > 20 µM (not active)

Compound: COCCNC(=O)CSc1nnc2c(Cl)cc(Cl)cn12
- IC50 (Coagulation factor XII): > 50 µM (inactive)

Compound: CCNC(=S)NC(=Nc1nc(C)cc(C)n1)NCc1cccnc1
- IC50 [10]: > 50 µM (inactive)
- IC50 [11]: > 66 µM (inactive)
- IC50 [12]: > 66 µM (inactive)
- IC50 [13]: 9.16 µM (active)

Compound: Cc1ccc(/C=C/C(=O)Nc2ccc(Oc3ccccc3)cc2)o1
- AC50 [14]: 5.29 µM (active)
- IC50 [15]: > 69.6 µM (inactive)
- IC50 [16]: > 69.6 µM (inactive)

Compound: CCC(C)NCCCCOc1ccc(Cl)cc1C (centres undefined)
- AC50 [17]: > 20 µM (inactive)

Compound: CC(C)CN(CC(C)C)C1=N/C(=C\c2ccco2)C(=O)N1c1ccccc1
- AC50 (Cytochrome P450 3A4): inconclusive

Compound: Cn1c2c(c3ccccc31)CCSC2=O
- IC50 (Coagulation factor XII): > 50 µM (inactive)
- CC50 [18]: > 50 µM (active)

Compound: CC1CCN(C(=O)c2ccc3ccccc3c2)CC1
- EC50 [1]: 1.09 µM (active)
- EC50 [3]: 0.449 µM (active)
- EC50 [4]: 35 µM (active)
- EC50 [19]: < 0.1 µM (active)
- EC50 (H4): > 120 µM (not active)
- EC50 [5]: 10.2 µM (active)

Compound: CCN(CCNC(=O)C1CCN(Cc2nc(-c3ccc(Cl)cc3)oc2C)CC1)c1ccccc1
- EC50 [20]: 6.02 µM (active)
- EC50 [8]: > 20 µM (not active)
- EC50 [9]: > 20 µM (not active)
- AC50 [21]: 4.08 µM (active)
- EC50 [22]: 6.26 µM (active)

Compound: C/C(NCCN1CCOCC1)=C1/C(=O)NC(=O)N(Cc2ccccc2)C1=O
- AC50 (Cytochrome P450 2C9): 25.1 µM (inconclusive)
- AC50 (Cytochrome P450 3A4): inconclusive

Compound: COc1ccc(C2N(c3ccccc3)CCN2c2ccccc2)cc1O
- IC50 (Coagulation factor XII): > 50 µM (inactive)

Compound: COc1ccc(-c2csc(NC(=O)COC(=O)c3ccco3)n2)cc1
- EC50 [1]: > 12 µM (not active)
- EC50 [3]: > 12 µM (not active)
- EC50 [4]: 29 µM (active)
- EC50 [19]: 35.9 µM (active)
- EC50 (H4): 0.188 µM (active)
- EC50 [5]: > 12 µM (not active)

Compound: COc1ccc(OC)c(C2CC(=O)N3CN(c4ccccc4)CSC3=C2C#N)c1 (centres undefined)
- IC50 [10]: > 50 µM (inactive)
- IC50 [23]: 11.8 µM (active)
- IC50 [13]: 6.54 µM (active)

Compound: COc1ccc(-c2ccc(CN3C(C(C)C)C(=O)N(Cc4cn(Cc5ccco5)nn4)CCS3(=O)=O)cc2)cc1OC (centres undefined)
- IC50 [15]: > 69.5 µM (inactive)
- IC50 [16]: > 69.5 µM (inactive)

Compound: COc1ccc(/N=C2\SC(CC(=O)Nc3ccc(F)cc3)C(=O)N2Cc2ccco2)cc1 (centres undefined)
- IC50 [15]: > 69.5 µM (inactive)
- IC50 [16]: > 69.5 µM (inactive)
